From patent US20250236627A1, “CERTAIN OCTAHYDROFURO[3,4- B]PYRAZINES AS GLP-1 RECEPTOR MODULATORS” (ASTRAZENECA AB, priority 2021, published 2025) come the findings set out here.

SMILES strings stand for the structures. Where only a bound is given, the exact number is not on record here.

The target of assay [1] is T1, endogenous human glucagon-like peptide 1 receptor (GLP-1R) (Homo sapiens, UniProt P43220).
T1 construct: endogenous human glucagon-like peptide 1 receptor (GLP-1R) in a pancreatic insulinoma cell line; host or cells: EndoC-βH1 human pancreatic β cell line
The assay is described as follows: EndoC cAMP Accumulation Assay. Format: cell-based. The note with it: EndoC-βH1 human pancreatic β cell line; HTRF cAMP assay. The gist of the method:
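Thawed EndoC-βH1 cells (3000 per well) were stimulated for 30 min at room temperature in HBSS/25 mM HEPES pH 7.4, 0.1% BSA and 0.5 mM IBMX. cAMP was measured by HTRF competitive immunoassay after 1 h. Responses were fitted by 4-parameter logistic as % activation relative to maximal GIP (82.5 nM), with basal cAMP as zero.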

Assay [2] addresses T2, human phosphodiesterase-3A (Homo sapiens, UniProt Q14432).
T2 construct: host or cells: Sf9 cells
The assay can be described thus: PDE3 Assay. Format: biochemical. As to conditions: human recombinant enzyme expressed in Sf9 cells; formation of 5′AMP from cAMP. As for the experimental part:
Evaluation of the effects of compounds on the activity of the human phosphodiesterase-3A is quantified by measuring the formation of 5′AMP from cAMP using a human recombinant enzyme expressed in Sf9 cells.
The test compound, reference compound or water (control) are added to a buffer containing 40 mM Tris/HCl (pH 7.4) and 8 mM MgCl2, 450 nM cAMP and 0.25 μCi [^3H]cAMP.
Thereafter, the reaction is initiated by addition of the enzyme (about 1 U) and the mixture is incubated for 20 min at 22° C.
For basal control measurements, the enzyme is omitted from the reaction mixture.
Following incubation SPA beads are added. After 30 min at 22° C. under shaking, the amount of [^3H]5′AMP is quantified with a scintillation counter (Topcount, Packard).
The results are expressed as a percent inhibition of the control enzyme activity. The standard inhibitory reference compound is milrinone (CAS number 78415-72-2), which is tested in each experiment at several concentrations to obtain an inhibition curve from which its IC50 value is calculated.

The target of a further assay is T3, human GLP-1R receptor (Homo sapiens, UniProt P43220, L260F).
T3 construct: expressed in transfected cells; host or cells: CHO-K1 (ATCC CCL-61)
The assay can be described thus: CHOK1 GLP-1R cAMP Assay. Format: cell-based. As to conditions: CHO-K1 cell line stably expressing human GLP-1R; HTRF cAMP detection. The method in brief:
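CHO-K1 cells, 800/well, stimulated 20 min at room temperature with compound in HEPES pH 7.4/HBSS/0.1% BSA plus IBMX (1 mM in the added buffer). cAMP measured by HTRF competitive immunoassay after ≥1 h, converted to pM via standard curve. EC50 from 4-parameter logistic fit; % effect relative to saturating GLP1(7-36)NH2.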

T3 sequence (P43220 24-463 L260F): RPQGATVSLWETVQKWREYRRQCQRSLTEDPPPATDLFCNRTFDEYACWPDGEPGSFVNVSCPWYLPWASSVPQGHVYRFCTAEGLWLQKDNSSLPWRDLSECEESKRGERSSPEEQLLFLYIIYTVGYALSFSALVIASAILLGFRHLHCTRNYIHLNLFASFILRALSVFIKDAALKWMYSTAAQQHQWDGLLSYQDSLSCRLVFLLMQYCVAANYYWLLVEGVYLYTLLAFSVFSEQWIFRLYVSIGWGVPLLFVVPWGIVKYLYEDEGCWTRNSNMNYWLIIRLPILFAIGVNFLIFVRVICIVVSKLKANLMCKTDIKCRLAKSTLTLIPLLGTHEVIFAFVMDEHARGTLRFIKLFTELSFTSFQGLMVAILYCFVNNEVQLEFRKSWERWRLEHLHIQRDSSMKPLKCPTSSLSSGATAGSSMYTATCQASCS
T1 sequence (P43220 24-463): as the sequence (P43220 24-463 L260F) above, with F237L counted along it
T2 sequence (Q14432 whole entry): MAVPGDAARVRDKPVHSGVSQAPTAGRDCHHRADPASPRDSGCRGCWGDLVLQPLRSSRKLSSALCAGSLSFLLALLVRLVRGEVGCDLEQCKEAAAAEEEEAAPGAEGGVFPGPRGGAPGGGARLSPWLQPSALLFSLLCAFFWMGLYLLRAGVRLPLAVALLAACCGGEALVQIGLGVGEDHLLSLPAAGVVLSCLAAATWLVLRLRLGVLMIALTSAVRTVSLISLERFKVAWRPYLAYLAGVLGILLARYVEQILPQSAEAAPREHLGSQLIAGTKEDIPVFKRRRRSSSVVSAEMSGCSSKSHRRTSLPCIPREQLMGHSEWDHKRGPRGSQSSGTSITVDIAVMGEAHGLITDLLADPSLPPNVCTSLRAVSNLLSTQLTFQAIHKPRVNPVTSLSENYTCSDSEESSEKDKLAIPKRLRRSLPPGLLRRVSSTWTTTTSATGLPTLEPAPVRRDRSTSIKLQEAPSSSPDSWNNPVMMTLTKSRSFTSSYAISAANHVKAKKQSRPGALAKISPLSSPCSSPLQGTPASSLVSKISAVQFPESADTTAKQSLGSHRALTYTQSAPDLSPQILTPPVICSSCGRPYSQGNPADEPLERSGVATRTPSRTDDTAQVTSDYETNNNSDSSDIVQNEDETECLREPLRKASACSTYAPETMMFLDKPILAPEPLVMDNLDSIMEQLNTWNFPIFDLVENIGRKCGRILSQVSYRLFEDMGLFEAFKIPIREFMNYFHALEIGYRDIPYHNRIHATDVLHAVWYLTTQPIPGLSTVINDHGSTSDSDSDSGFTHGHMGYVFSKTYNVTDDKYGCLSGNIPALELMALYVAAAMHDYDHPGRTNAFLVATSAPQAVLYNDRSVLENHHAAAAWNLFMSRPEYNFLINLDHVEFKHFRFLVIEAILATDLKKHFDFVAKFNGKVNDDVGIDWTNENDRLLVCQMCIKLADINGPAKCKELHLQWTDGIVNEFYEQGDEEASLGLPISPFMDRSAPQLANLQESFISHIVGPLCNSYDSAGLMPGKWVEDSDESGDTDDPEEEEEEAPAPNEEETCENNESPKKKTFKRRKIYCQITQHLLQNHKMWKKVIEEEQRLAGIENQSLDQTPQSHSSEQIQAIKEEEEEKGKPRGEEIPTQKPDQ

Consider `COc1cc(C(=O)O)cc2c1nc(CN1CCN(c3cccc4c3O[C@@](C)(c3ccc(Cl)cn3)O4)[C@@H]3COC[C@@H]31)n2C[C@@H]1CCO1` (relative stereo) [Example 1b, 2-((4aR*,7aS*)-4-((R*)-2-(5-Chloropyridin-2-yl)-2-methylbenzo[d][1,3]dioxol-4-yl)hexahydrofuro[3,4-b]pyrazin-1(2H)-yl)methyl)-4-methoxy-1-(((S)-oxetan-2-yl)methyl)-1H-benzo[d]imidazole-6-carboxylic acid], for which the EC50 in assay [1] is 3.1 nM; at human GLP-1R receptor it was 1.8 nM. Also, in assay [2], the IC50 is above 100000 nM.
Take `COc1cc(C(=O)O)cc2c1nc(CN1CCN(c3cccc4c3O[C@@](C)(c3ccc(Cl)cn3)O4)[C@@H]3COC[C@@H]31)n2C[C@@H]1CCCO1` (relative stereo) [Example 2a, 2-((4aR*,7aS*)-4-((R*)-2-(5-Chloropyridin-2-yl)-2-methylbenzo[d][1,3]dioxol-4-yl)hexahydrofuro[3,4-b]pyrazin-1(2H)-yl)methyl)-4-methoxy-1-(((S)-tetrahydrofuran-2-yl)methyl)-1H-benzo[d]imidazole-6-carboxylic acid]: the results for the EC50 (in assay [1]; at human GLP-1R receptor) were 3.1 nM and 3.8 nM, respectively. In addition, the IC50 in assay [2] was above 100000 nM.
`C[C@]1(c2ccc(Cl)cc2F)Oc2cccc(N3CCN(Cc4nc5c(Cl)cc(C(=O)O)cc5n4C[C@@H]4CCO4)[C@H]4COC[C@H]43)c2O1` (single isomer, unassigned) [Example 15c, 4-Chloro-2-(((4aR*,7aS*)-4-((R*)-2-(4-chloro-2-fluorophenyl)-2-methylbenzo[d][1,3]dioxol-4-yl)hexahydrofuro[3,4-b]pyrazin-1(2H)-yl)methyl)-1-(((S)-oxetan-2-yl)methyl)-1H-benzo[d]imidazole-6-carboxylic acid]: the EC50 in assay [1] was 560 nM; at human GLP-1R receptor, 150 nM.
The like results for `C[C@]1(c2ccc(Cl)cc2F)Oc2cccc(N3CCN(Cc4nc5c(Cl)cc(C(=O)O)cc5n4C[C@@H]4CCO4)[C@H]4COC[C@H]43)c2O1` (single isomer, unassigned) [Example 15d, 4-Chloro-2-(((4aR*,7aS*)-4-((R*)-2-(4-chloro-2-fluorophenyl)-2-methylbenzo[d][1,3]dioxol-4-yl)hexahydrofuro[3,4-b]pyrazin-1(2H)-yl)methyl)-1-(((S)-oxetan-2-yl)methyl)-1H-benzo[d]imidazole-6-carboxylic acid] were, in that order, 160 nM and 190 nM.
The like results for `C[C@]1(c2ccc(Cl)cc2F)Oc2cccc(N3CCN(Cc4nc5c(F)cc(C(=O)O)cc5n4C[C@@H]4CCO4)[C@H]4COC[C@H]43)c2O1` (single isomer, unassigned) [Example 16a, 2-(((4aR*,7aS*)-4-((R*)-2-(4-Chloro-2-fluorophenyl)-2-methylbenzo[d][1,3]dioxol-4-yl)hexahydrofuro[3,4-b]pyrazin-1(2H)-yl)methyl)-4-fluoro-1-(((S)-oxetan-2-yl)methyl)-1H-benzo[d]imidazole-6-carboxylic acid] were, in that order, 2.3 nM and 1.2 nM.
The matching figures for `C[C@]1(c2ccc(Cl)cc2F)Oc2cccc(N3CCN(Cc4nc5c(F)cc(C(=O)O)cc5n4C[C@@H]4CCO4)[C@H]4COC[C@H]43)c2O1` (single isomer, unassigned) [Example 16b, 2-(((4aR*,7aS*)-4-((R*)-2-(4-Chloro-2-fluorophenyl)-2-methylbenzo[d][1,3]dioxol-4-yl)hexahydrofuro[3,4-b]pyrazin-1(2H)-yl)methyl)-4-fluoro-1-(((S)-oxetan-2-yl)methyl)-1H-benzo[d]imidazole-6-carboxylic acid]: 270 nM and 120 nM.
Turning to `C[C@]1(c2ccc(Cl)cc2F)Oc2cccc(N3CCN(Cc4nc5c(F)cc(C(=O)O)cc5n4C[C@@H]4CCO4)[C@H]4COC[C@H]43)c2O1` (single isomer, unassigned) [Example 16c, 2-(((4aR*,7aS*)-4-((R*)-2-(4-Chloro-2-fluorophenyl)-2-methylbenzo[d][1,3]dioxol-4-yl)hexahydrofuro[3,4-b]pyrazin-1(2H)-yl)methyl)-4-fluoro-1-(((S)-oxetan-2-yl)methyl)-1H-benzo[d]imidazole-6-carboxylic acid], the EC50 in assay [1] came to 440 nM; on human GLP-1R receptor, 170 nM.
For `C[C@]1(c2ccc(Cl)cc2F)Oc2cccc(N3CCN(Cc4nc5c(F)cc(C(=O)O)cc5n4C[C@@H]4CCO4)[C@H]4COC[C@H]43)c2O1` (single isomer, unassigned) [Example 16d, 2-(((4aR*,7aS*)-4-((R*)-2-(4-Chloro-2-fluorophenyl)-2-methylbenzo[d][1,3]dioxol-4-yl)hexahydrofuro[3,4-b]pyrazin-1(2H)-yl)methyl)-4-fluoro-1-(((S)-oxetan-2-yl)methyl)-1H-benzo[d]imidazole-6-carboxylic acid], the results for the EC50 (in assay [1]; at human GLP-1R receptor) were 270 nM and 160 nM, respectively.
The like results for `Cc1nccn1CCn1c(CN2CCN(c3cccc4c3O[C@@](C)(c3ccc(Cl)cc3F)O4)[C@@H]3COC[C@@H]32)nc2c(F)cc(C(=O)O)cc21` (single isomer, unassigned) [Example 17] were, in that order, 4.5 nM and 14 nM.
The matching figures for `Cc1nccn1CCn1c(CN2CCN(c3cccc4c3O[C@@](C)(c3ccc(Cl)cc3F)O4)[C@@H]3COC[C@@H]32)nc2c(Cl)cc(C(=O)O)cc21` (single isomer, unassigned) [Example 18]: 6.1 nM and 26 nM.
The like results for `C[C@]1(c2ccc(Cl)cc2F)Oc2cccc(N3CCN(Cc4nc5c(Cl)cc(C(=O)O)cc5n4Cc4cocn4)[C@H]4COC[C@H]43)c2O1` (single isomer, unassigned) [Example 19] were, in that order, 7.4 nM and 25 nM.
Consider `C[C@]1(c2ccc(Cl)cc2F)Oc2cccc(N3CCN(Cc4nc5c(F)cc(C(=O)O)cc5n4Cc4cocn4)[C@H]4COC[C@H]43)c2O1` (single isomer, unassigned) [Example 20a], for which the EC50 stood at 410 nM in assay [1] and 150 nM on human GLP-1R receptor.
The matching figures for `C[C@]1(c2ccc(Cl)cc2F)Oc2cccc(N3CCN(Cc4nc5c(F)cc(C(=O)O)cc5n4Cc4cocn4)[C@H]4COC[C@H]43)c2O1` (single isomer, unassigned) [Example 20b]: 10 nM and 7.2 nM.
The matching figures for `C[C@]1(c2ccc(Cl)cn2)Oc2cccc(N3CCN(Cc4nc5c(F)cc(C(=O)O)cc5n4CC4(C#N)CC4)[C@H]4COC[C@H]43)c2O1` (single isomer, unassigned) [Example 22b]: 240 nM and 170 nM.
The matching figures for `C[C@]1(c2ccc(Cl)cn2)Oc2cccc(N3CCN(Cc4nc5c(F)cc(C(=O)O)cc5n4CC4(C#N)CC4)[C@H]4COC[C@H]43)c2O1` (single isomer, unassigned) [Example 22c]: 580 nM and 140 nM.
In the case of `C[C@]1(c2ccc(Cl)cn2)Oc2cccc(N3CCN(Cc4nc5c(Cl)cc(C(=O)O)cc5n4CC4(C#N)CC4)[C@H]4COC[C@H]43)c2O1` (single isomer, unassigned) [Example 23b], the EC50 was 190 nM in assay [1] and 77 nM at human GLP-1R receptor.
In the case of `C[C@]1(c2ccc(Cl)cn2)Oc2cccc(N3CCN(Cc4nc5c(Cl)cc(C(=O)O)cc5n4CC4(CC#N)CC4)[C@H]4COC[C@H]43)c2O1` (single isomer, unassigned) [Example 24], the EC50 in assay [1] came to 4.3 nM; at human GLP-1R receptor, 3.1 nM.
In the case of `C[C@]1(c2ccc(Cl)cn2)Oc2cccc(N3CCN(Cc4nc5ccc(C(=O)O)cc5n4CC4(C#N)CC4)[C@H]4COC[C@H]43)c2O1` (single isomer, unassigned) [Example 26], the EC50 was determined as 11 nM in assay [1] and 3.6 nM on human GLP-1R receptor.
The like results for `C[C@]1(c2ccc(Cl)cn2)Oc2cccc(N3CCN(Cc4nc5c(Cl)cc(C(=O)O)cc5n4CCn4cccn4)[C@H]4COC[C@H]43)c2O1` (single isomer, unassigned) [Example 27] were, in that order, 20 nM and 81 nM.
Take `N#Cc1ccc(COc2cccc(C3CCN(Cc4nc5ccc(C(=O)O)cc5n4C[C@@H]4CCO4)CC3)n2)c(F)c1` [Ref Comp B, reference compound]: the IC50 in assay [2] was determined as 11000 nM.
